Assay results taken from patent US20230121313A1 (priority 2019, published 2023).

Tests used:
subjects with TRD = details: human, in vivo, other: intranasal
Experimental: The Clinician Administered Dissociative States Scale (CADSS) was measured prior to the start of each dose, at 40 minutes, and 1.5 hours postdose.

[1] = Experimental: This example provides an LC-MS/MS method for the determination of ketamine and norketamine in sodium heparin human plasma using ketamine-d4 and norketamine-d4 as the respective internal standards (IS).
Retention time and peak area were determined by Analyst® Data Acquisition/Processing Software (Version 1.4.2). Analyte concentrations were obtained from a calibration curve constructed by plotting the peak area ratio versus the concentration using Watson LIMS (Version 7.3). Watson LIMS and Microsoft Office Excel were used for statistical calculations. When Office Excel was used the calculations were 100% audited. Concentrations were calculated using linear regression according to the following equation: […]
Selectivity is defined as the ability of a chromatographic method to measure a response from the analyte without interference from the biological matrix. This was accomplished by evaluating six individual lots of human plasma prepared as blank and at the lower limit of quantitation (LLOQ, 0.500 ng/mL).
The matrix effect is defined as the suppression or enhancement of ionization of analytes by the presence of matrix components in the biological samples. See, e.g., C. T. Viswanathan, “Quantitative Bioanalytical Methods Validation and Implementation: Best Practices for Chromatographic and Ligand Binding Assays,” Pharmaceutical Research, Vol. 24, No. 10, October 2007, p. 1969. The matrix effect was evaluated by extracting single replicates of six lots of blank human plasma and spiking each lot at the Low and High QC concentration levels (1.50 ng/mL and 375 ng/mL) post extraction. The area ratios of the six lots of post-extraction spiked plasma samples were compared to the mean area ratio obtained from three replicates of the neat solution prepared at the same concentration level in purified water.
The linearity of the method was evaluated at a linear range of 0.500/0.500-500/500 ng/mL for ketamine/norketamine in human plasma. Linear regression (with a weighting factor of 1/x2) was used to produce the best fit for the concentration-detector response relationship for ketamine and norketamine in human plasma.
The validation was conducted with a target LLOQ of 0.500 ng/mL for ketamine and norketamine in human plasma. To evaluate the sensitivity, six QC samples prepared at the LLOQ were analyzed during three individual batch runs as part of the intra-run and inter-run accuracy and precision for the method. The concentrations were calculated with the calibration curve.
The intra-run and inter-run accuracy and precision of the method were investigated at four different QC concentration levels (0.500 ng/mL (LLOQ), 1.50 ng/mL, 80.0 ng/mL, and 375 ng/mL).
Recoveries were calculated according to the following formula: […]
To assess the reinjection reproducibility, an analyte batch containing a standard curve and QC samples was reinjected after being kept at room temperature for 161.5 hours.

CN[C@]1(c2ccccc2Cl)CCCCC1=O [esketamine, (S)-2-(2-chlorophenyl)-2-(methylamino)cyclohexanone]
CADSS dissociative and perceptual change symptoms resolved by (postdose) (subjects with TRD): ≤ 1.5 h
QC sample freeze/thaw stability ([1]; freeze (−20° C.)/thaw (room temperature)): 3 freeze (−20° C.)/thaw (room temperature) cycles
QC sample long-term storage stability ([1]; human plasma QC sample at −20° C.): 707 days at −20 °C
QC sample bench-top stability ([1]; human plasma QC sample, room temperature): 18 hours at room temperature
